Assay results reported in patent US11746136B2, “Composition and methods for disruption of bacterial biofilms without accompanying inflammation” (Research Institute at Nationwide Children's Hospital, priority 2017, dated 2023).

Columns and labels:
[1] = test system: Staphylococcus aureus; test: Anti-biofilm effect on in vitro preformed 24-hour biofilm (CLSM, COMSTAT); assay type: cell-based; design: key: ↓: 20-30% decrease; ↓↓: 31-50% decrease; ↓↓↓: >51% decrease; ↔: No change; conditions: 5 μg/ml added at 24h to preformed biofilm, 16 h incubation; decrease vs control
Method: (§1) To determine the antibiofilm function of the variant HMGB1 (mHMGB1 (C45S)), Applicants expressed and purified human recombinant HMGB1 (rHMGB1) and recombinant variant HMGB1 (mHMGB1 (C45S)) in E. coli. In vitro preformed 24-hour biofilms formed by multiple human pathogens as indicated in Table 1 were incubated with 5 μg/ml rHMGB1 or mHMGB1 (C45S) for 16 hours. Enterococcus faecium biofilms were incubated with 20 μg/ml rHMGB1 or mHMGB1 (C45S) for 16 hours. Biofilms were washed and stained with LIVE/DEAD® stain and analyzed using a confocal laser scanning microscope and COMSTAT analysis. Applicants observed that mHMGB1 (C45S) was effective at disrupting each of the in vitro preformed biofilms as indicated by significant reduction in average thickness and biomass compared to the control (Table 1).
(§2) HMGB1 isoforms (5 μg/ml) were added at 24h to in vitro preformed bacterial biofilms. After 16 h of incubation (40h total), biofilms were washed and stained with LIVE/DEAD® followed by visualization using CLSM. Biofilms were analyzed by Comstat to calculate average thickness^a (AT) and biomass^a (BM).

[2] = test system: Acinetobacter baumanii; test: as above; assay type: cell-based; conditions: 5 μg/ml added at 24h to preformed biofilm, 16 h incubation; decrease vs control
Method: as §1, §2

[3] = test system: Aggregatibacter actinomycetemcomitans; test: as above; assay type: cell-based; conditions: 5 μg/ml added at 24h to preformed biofilm, 16 h incubation; decrease vs control
Method: as §1, §2

[4] = test system: Burkholderia cenocepacia; test: as above; assay type: cell-based; conditions: 5 μg/ml added at 24h to preformed biofilm, 16 h incubation; decrease vs control
Method: as §1, §2

[5] = test system: Enterobacter spp.; test: as above; assay type: cell-based; conditions: 5 μg/ml added at 24h to preformed biofilm, 16 h incubation; decrease vs control
Method: as §1, §2

[6] = test system: Enterococcus faecium; test: as above; assay type: cell-based; conditions: 20 μg/ml added at 24h to preformed biofilm, 16 h incubation; decrease vs control
Method: as §1, §2

[7] = test system: Klebsiella pneumoniae; test: as above; assay type: cell-based; conditions: 5 μg/ml added at 24h to preformed biofilm, 16 h incubation; decrease vs control
Method: as §1, §2

[8] = test system: Nontypeable Haemophilus influenzae; test: as above; assay type: cell-based; conditions: 5 μg/ml added at 24h to preformed biofilm, 16 h incubation; decrease vs control
Method: as §1, §2

[9] = test system: Pseudomonas aeruginosa; test: as above; assay type: cell-based; conditions: 5 μg/ml added at 24h to preformed biofilm, 16 h incubation; decrease vs control
Method: as §1, §2

[10] = test system: Uropathogenic E. coli; test: as above; assay type: cell-based; conditions: 5 μg/ml added at 24h to preformed biofilm, 16 h incubation; decrease vs control
Method: as §1, §2

[11] = test system: NTHI strain 86-028NP biofilms; test: Chinchilla model of experimental otitis media, clearance of preformed NTHI biofilms; assay type: in vivo; conditions: 4-day old NTHI biofilm, two doses (day 4 and 5; 5 μg each) into middle ear, scored day 6, vs diluent
Method: Diluent, 5 μg rHMGB1, or 5 mHMGB1 (C45S) were delivered directly to the middle ears of chinchillas at 4 and 5 days post infection with NTHI. Animals were sacrificed 24 h later and their middle ears were imaged (FIG. 1A) and blindly scored (FIG. 1B) based on the criteria described in the bottom of FIG. 1A. Bars represent SEM. ***P<0.001.
Diluent or 5 μg rHMGB1 or mHMGB1 (C45 S) were delivered directly to middle ears of chinchillas at 4 and 5 days post infection with NTHI. Animals were sacrificed 24 h later, and their middle ears were imaged (FIG. 6A) and blindly scored (FIG. 6B) based on the criteria described in the bottom of (FIG. 6A). Bars represent SEM. ***P<0.001.
To determine the antibiofilm function of mHMGB1 (C45S) in vivo, Applicants employed two distinct animal models. In the first model Applicants tested the ability of rHMGB1 and mHMGB1 (C45S) to clear preformed NTHI biofilms in Applicants' well-established chinchilla model of experimental OM (Novotny et al. 2011; 2013b; Novotny et al. 2016). Applicants first established NTHI strain 86-028NP biofilms in the chinchilla middle ear for 4 days. […] On day 6 the animals were sacrificed and the middle ears were blindly scored for the presence of any remaining biofilm. […] After 4h, mice were sacrificed and total neutrophils were quantified in peritoneal lavage.

[12] = test system: Burkholderia cenocepacia; assay type: in vivo, C57BL/6 mice; conditions: for bacterial burden (CFUs) in BAL: 10^7 CFU intratracheally, 5 μg added simultaneously, after 18 hours, vs control
Method: C57BL/6 mice were infected with 10^7 CFU i.t., and simultaneously received rHMGB1 or mHMGB1 (C45S). After 18 h, (FIG. 2A) B. cenocepacia CFUs were quantified in BAL, (FIG. 2B) total host cells infiltrating into the lung were enumerated in BAL, and (FIG. 2C) BAL cells were stained with anti CD45, CD11b and Ly-6G to measure neutrophil migration. Bars represent standard deviation. *P<0.05; **P<0.005. (FIG. 2D) Lungs were collected 72 hpi. Tissue was fixed and embedded in paraffin, sectioned and stained with H&E. All panels show a magnification of 10×.
C57BL/6 mice were infected with 10^7 CFU i.t., and simultaneously received […] rHMGB1 or mHMGB1 (C45 S). (FIG. 7A) Aggregates of B. cenocepacia were visible by fluorescence microscopy in sections probed with an α-B. cenocepacia antibody. After 18 h, (FIG. 7B) CFUs were quantified in BAL, and (FIG. 7C) BAL cells were stained with α-CD45, CD11b, and Ly-6G to measure neutrophil migration. Bars represent SD. *P<0.05.
To determine the antibiofilm function of mHMGB1 (C45S) in vivo, Applicants employed two distinct animal models. In the first model Applicants tested the ability of rHMGB1 and mHMGB1 (C45S) to clear preformed NTHI biofilms in Applicants' well-established chinchilla model of experimental OM (Novotny et al. 2011; 2013b; Novotny et al. 2016). Applicants first established NTHI strain 86-028NP biofilms in the chinchilla middle ear for 4 days. Applicants then treated the 4-day old NTHI biofilm with two doses (day 4 and 5; 5 μg each) of rHMGB1, mHMGB1 (C45S) or diluent. On day 6 the animals were sacrificed and the middle ears were blindly scored for the presence of any remaining biofilm. […] In the second model, Applicants tested the ability of rHMGB1 and mHMGB1 (C45S) to inhibit biofilm development of Burkholderia cenocepacia in the murine airways. C57BL/6 mice were infected with 10^7 CFU of B. cenocepacia intratracheally and 5 μg of rHMGB1 or mHMGB1 (C45S) was added simultaneously. After 18 hours, the animals were sacrificed and bronchoalveolar lavage (BAL) and lungs were collected. […] Lastly, Applicants validated the inflammatory activity of rHMGB1 and mHMGB1 (C45S) in an in vivo chemotaxis model to determine the ability to recruit neutrophils (Orlova et al. 2007; Penzo et al. 2010). C57BL/6 mice were injected with 5 μg of either mHMGB1 (C45S) or rHMGB1 or 1 ml of 4% thioglycollate. After 4h, mice were sacrificed and total neutrophils were quantified in peritoneal lavage.

[13] = test system: branched DNA structures; test: Affinity to branched DNA structures; assay type: binding; conditions: effect of the C45S mutation
[14] = Consequences of bacterial dispersal from biofilm in vivo (second site infections, sepsis)
Text: Also, this dispersal effect could result in sepsis.

[15] = test system: Uropathogenic E. coli UTI89; test: HMGB1 added at seeding and at 24h to UPEC biofilm; assay type: cell-based; conditions: 0.1, 1 and 5 μg/ml added at seeding and at 24h
Method: Applicants added HMGB1 at 0.1, 1 and 5 μg/ml at seeding and at 24h to a biofilm formed by Uropathogenic E. coli UTI89. […] Based on this information, Applicants hereby disclose a method for inhibiting, competing or titrating the binding of a deoxyribonucleic acid B II (DNABII) polypeptide to a microbial DNA in a biofilm, comprising, or alternatively consisting essentially of, or yet further consisting of, contacting the microbial DNA in the biofilm with an effective amount of an isolated or recombinant polypeptide comprising a modified high mobility group-box 1 domain (mHMGB1) comprising a C45S substitution thereby inhibiting, competing or titrating the binding of the DNABII polypeptide to the microbial DNA. The contacting can be accomplished in vitro or in vivo. Non-limiting examples of organisms that promote our cause the biofilm include one or more of Burkholderia cenocepacia, Enterobacter spp., Staphylococcus aureus, Klebsiella pneumoniae, Acinetobacter baumanii, Pseudomonas aeruginosa, Enterococcus faecium, Uropathogenic Escherichia coli (UPEC), Non-typeable Haemophilus influenzae (NTHI), and/or Aggregatibacter actinomycetemcomitans.

Molecule | average thickness (AT) [1] | biomass (BM) [1] | average thickness (AT) [2] | biomass (BM) [2] | average thickness (AT) [3] | biomass (BM) [3] | average thickness (AT) [4] | biomass (BM) [4] | average thickness (AT) [5] | biomass (BM) [5] | average thickness (AT) [6] | biomass (BM) [6] | average thickness (AT) [7] | biomass (BM) [7] | average thickness (AT) [8] | biomass (BM) [8] | average thickness (AT) [9] | biomass (BM) [9] | average thickness (AT) [10] | biomass (BM) [10] | other results
mHMGB1 (C45S): variant human HMGB1 with the cysteine at position 45 substituted with serine, expressed in E. coli (MGKGDPKKPRGKMSSYAFFVQTCREEHKKKHPDASVNFSEFSKKSSERWK) | ↓↓↓ (>51% decrease) | ↓↓↓ (>51% decrease) | ↓↓↓ (>51% decrease) | ↓↓↓ (>51% decrease) | ↓ (20-30% decrease) | ↓ (20-30% decrease) | ↓↓↓ (>51% decrease) | ↓↓↓ (>51% decrease) | ↓↓↓ (>51% decrease) | ↓↓↓ (>51% decrease) | ↓↓ (31-50% decrease) | ↓↓ (31-50% decrease) | ↓↓↓ (>51% decrease) | ↓↓↓ (>51% decrease) | ↓ (20-30% decrease) | ↓ (20-30% decrease) | ↓↓↓ (>51% decrease) | ↓↓↓ (>51% decrease) | ↓↓↓ (>51% decrease) | ↓↓↓ (>51% decrease) | clearing of biofilm from the middle ear (blindly scored) [11]: very effective at clearing the biofilms from the middle ear; B. cenocepacia CFUs in BAL compared to rHMGB1 ([12]; 10^7 CFU i.t., simultaneous treatment, after 18 h, compared to rHMGB1): significant decreases; bacterial burden (CFUs) in BAL [12]: effective at reducing the bacterial burden in BAL; inflammatory cell infiltration compared to rHMGB1 ([12]; mouse, in vivo): significant decreases; lung damage (H&E) ([12]; mouse, in vivo): more resembled uninfected mouse lungs; affinity to branched DNA structures [13]: increases the affinity of the molecule to branched DNA structures; second site infections or sepsis after dispersal of bacteria from biofilm [14]: None of these consequences has been observed
rHMGB1: recombinant HMGB1 derived from a human, expressed and purified in E. coli, used as comparator to mHMGB1 (C45S) [reference compound] | ↔ | ↔ | ↓↓↓ (>51% decrease) | ↓↓ (31-50% decrease) | ↓ (20-30% decrease) | ↓ (20-30% decrease) | ↓↓↓ (>51% decrease) | ↓↓↓ (>51% decrease) | ↓↓↓ (>51% decrease) | ↓↓↓ (>51% decrease) | ↓↓↓ (>51% decrease) | ↓↓↓ (>51% decrease) | ↓↓↓ (>51% decrease) | ↓↓↓ (>51% decrease) | ↓ (20-30% decrease) | ↓ (20-30% decrease) | ↓↓↓ (>51% decrease) | ↓↓↓ (>51% decrease) | ↓↓ (31-50% decrease) | ↓↓ (31-50% decrease) | clearing of biofilm from the middle ear (blindly scored) [11]: very effective at clearing the biofilms from the middle ear; bacterial burden (CFUs) in BAL [12]: effective at reducing the bacterial burden in BAL; lung damage (H&E) ([12]; mouse, in vivo): severe inflammation and increased neutrophil response
HMGB1: HMGB1 added to UPEC UTI89 biofilm; probably the recombinant human HMGB1 (rHMGB1) (protein, UniProt P09429 1-215, looked up) High mobility group protein B1: MGKGDPKKPRGKMSSYAFFVQTCREEHKKKHPDASVNFSEFSKKCSERWKTMSAKEKGKFEDMAKADKARYEREMKTYIPPKGETKKKFKDPNAPKRPPSAFFLFCSEYRPKIKGEHPGLSIGDVAKKLGEMWNNTAADDKQPYEKKAAKLKEKYEKDIAAYRAKGKPDAAKKGVVKAEKSKKKKEEEEDEEDEEDEEEEEDEEDEDEEEDDDDE |  |  |  |  |  |  |  |  |  |  |  |  |  |  |  |  |  |  |  |  | disruption of UPEC biofilms [15]: dose-dependent disruption of UPEC biofilms
